The values below come from patent publication US20250115598A1 (Anaxis Pharma Pty Ltd, priority 2021, published 2025).

One test has as its target human RIPK3 (Homo sapiens (Human), UniProt Q9Y572). Kind of test: KINOMEscan binding assay, human RIPK3. Particulars: Table 21. An outline of the steps: (§1)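 Tagged kinase + immobilized ligand beads + compound; eluted kinase quantified by qPCR. Kinase source: T7 phage lysate (BL21-derived E. coli, 32 °C) or HEK-293 with DNA tag. 11-pt 3-fold series, 1% DMSO, top 30,000 nM (most). Hill fit, slope −1 → Kd.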

In another test the target is human MLKL (full length) (Homo sapiens (Human), UniProt Q8NB16). Kind of test: KINOMEscan binding assay, human MLKL (full length). Particulars: KINOMEscan, Table 21; read-out: Human MLKL (full-length) (KD). An outline of the steps: as §1
Another test concerns the target human RIPK1 (Homo sapiens (Human), UniProt Q13546). Kind of test: KINOMEscan binding assay, human RIPK1. Particulars: Table 21. In a few lines:
as §1

What is called Kd is the equilibrium constant for the complex coming apart.

human RIPK3, sequence (Q9Y572 whole entry): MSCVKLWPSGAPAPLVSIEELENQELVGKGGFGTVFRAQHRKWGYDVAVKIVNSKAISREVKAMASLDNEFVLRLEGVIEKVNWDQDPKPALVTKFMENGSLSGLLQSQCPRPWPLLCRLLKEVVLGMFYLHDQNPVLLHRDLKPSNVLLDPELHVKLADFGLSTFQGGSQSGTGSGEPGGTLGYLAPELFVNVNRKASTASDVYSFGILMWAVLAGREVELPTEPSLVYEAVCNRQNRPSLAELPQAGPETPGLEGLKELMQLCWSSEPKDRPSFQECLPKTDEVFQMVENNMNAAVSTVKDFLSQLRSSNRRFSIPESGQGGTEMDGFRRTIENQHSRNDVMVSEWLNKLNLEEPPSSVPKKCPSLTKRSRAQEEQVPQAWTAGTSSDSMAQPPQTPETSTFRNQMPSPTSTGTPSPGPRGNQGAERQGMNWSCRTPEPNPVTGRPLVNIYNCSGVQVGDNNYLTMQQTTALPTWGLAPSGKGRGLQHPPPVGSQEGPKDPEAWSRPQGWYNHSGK
human RIPK1, sequence (Q13546 whole entry): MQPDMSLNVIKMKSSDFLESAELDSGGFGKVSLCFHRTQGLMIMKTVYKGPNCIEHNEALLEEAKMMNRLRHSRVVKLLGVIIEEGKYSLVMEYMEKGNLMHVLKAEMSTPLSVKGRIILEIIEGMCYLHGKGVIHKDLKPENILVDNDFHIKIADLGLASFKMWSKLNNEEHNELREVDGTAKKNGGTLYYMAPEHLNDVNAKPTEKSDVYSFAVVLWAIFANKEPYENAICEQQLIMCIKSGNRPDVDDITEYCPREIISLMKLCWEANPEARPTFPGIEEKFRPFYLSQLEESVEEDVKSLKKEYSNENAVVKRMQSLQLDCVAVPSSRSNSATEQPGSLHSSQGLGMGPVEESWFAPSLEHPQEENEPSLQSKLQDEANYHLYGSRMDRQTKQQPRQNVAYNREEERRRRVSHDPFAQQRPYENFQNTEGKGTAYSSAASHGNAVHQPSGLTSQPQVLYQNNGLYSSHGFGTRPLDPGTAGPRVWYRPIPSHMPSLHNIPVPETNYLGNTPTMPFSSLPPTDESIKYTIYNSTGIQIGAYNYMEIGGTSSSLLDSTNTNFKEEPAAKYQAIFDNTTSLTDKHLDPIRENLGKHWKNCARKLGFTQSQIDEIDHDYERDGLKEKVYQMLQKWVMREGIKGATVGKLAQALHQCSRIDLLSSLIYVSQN
human MLKL (full length), sequence (Q8NB16 whole entry): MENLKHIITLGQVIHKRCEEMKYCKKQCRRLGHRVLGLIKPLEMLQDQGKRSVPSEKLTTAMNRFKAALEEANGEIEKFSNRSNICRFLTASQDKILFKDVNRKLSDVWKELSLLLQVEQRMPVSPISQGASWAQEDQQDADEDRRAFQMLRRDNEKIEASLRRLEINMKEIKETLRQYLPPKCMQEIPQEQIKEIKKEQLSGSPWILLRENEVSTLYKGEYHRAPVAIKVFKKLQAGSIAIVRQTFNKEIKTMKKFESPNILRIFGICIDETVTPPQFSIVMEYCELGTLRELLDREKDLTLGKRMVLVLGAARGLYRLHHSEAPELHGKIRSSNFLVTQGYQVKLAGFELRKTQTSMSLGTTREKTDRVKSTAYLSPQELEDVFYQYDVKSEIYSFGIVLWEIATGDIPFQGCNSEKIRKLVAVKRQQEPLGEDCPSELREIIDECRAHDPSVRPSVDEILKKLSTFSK

For the molecule `C[C@H](Oc1cc(-c2nn(C)c3c(-c4cnn(C5CC(C)(C)N(C)C(C)(C)C5)c4)cnc(N)c23)ccc1NS(=O)(=O)C(F)F)c1ccc(F)cc1` [Compound 162, (S)-N-(4-(4-amino-1-methyl-7-(1-(1,2,2,6,6-pentamethylpiperidin-4-yl)-1H-pyrazol-4-yl)-1H-pyrazolo[4,3-c]pyridin-3-yl)-2-(1-(4-fluorophenyl)ethoxy)phenyl)-1,1-difluoromethanesulfonamide], the equilibrium dissociation constant (Kd) at human RIPK3 is greater than 10 µM; at human MLKL (full length), less than 0.001 µM; at human RIPK1, greater than 10 µM.
On to `C[C@H](Oc1cc(-c2nn(C)c3c(-c4cnn(C5C[C@H]6CNC[C@H]6C5)c4)cnc(N)c23)ccc1NS(=O)(=O)C(F)F)c1ccc(F)cc1` (stereo partly drawn) [Compound 163, N-(4-(4-amino-1-methyl-7-(1-((3aR,6aS)-octahydrocyclo-penta[c]pyrrol-5-yl)-1H-pyrazol-4-yl)-1H-pyrazolo[4,3-c]pyridin-3-yl)-2-((S)-1-(4-fluoropohenyl)eth-oxy)phenyl)-1,1-difluoromethane-sulfonamide], for which the Kd is greater than 10 µM at human RIPK3, less than 0.001 µM on human MLKL (full length) and greater than 10 µM on human RIPK1.
As for `C[C@H](Oc1cc(-c2nn(C)c3c(-c4cnn(C5C[C@@H]6CN(C)C[C@@H]6C5)c4)cnc(N)c23)ccc1NS(=O)(=O)C(F)F)c1ccc(F)cc1` (stereo partly drawn) [Compound 164, N-(4-(4-amino-1-methyl-7-(1-((3aR,6aS)-2-methyloctahydrocyclo-penta[c]pyrrol-5-yl)-1H-pyrazol-4-yl)-1H-pyrazolo[4,3-c]pyridin-3-yl)-2-((S)-1-(4-fluorophenyl)eth-oxy)phenyl)-1,1-difluoromethane-sulfonamide], the figures for the Kd on human RIPK3, on human MLKL (full length) and on human RIPK1 were greater than 10 µM, less than 0.001 µM and greater than 10 µM, respectively.
